# From ChEMBL document CHEMBL3259735, “Designing bifunctional NOP receptor-mu opioid receptor ligands from NOP-receptor selective scaffolds. Part II” (Bioorg Med Chem, 2014)
# The source made the active and inactive calls. The calls are words filed in the database; no cut-off is given here.
# Key:
# Mus musculus [1] = experiment: Antinociceptive activity in ICR mouse assessed as thermal-stimulus induced tail flick latency at 3 to 10 mg/kg, sc measured up to 4 hrs relative to control; assay type: functional, organism-based
# Mus musculus [2] = experiment: Toxicity in ICR mouse assessed as rewarding effect by measuring increase in time spent in drug-paired compartment at 10 mg/kg, sc administered every 2 days for 6 days measured 24 hrs post last dose by conditioned place preference assay; assay type: organism-based; parameters: dose 10 mg/kg, route subcutaneous; conditions: in vivo
# Mus musculus [3] = experiment: Toxicity in ICR mouse assessed as increase in global effect at 10 mg/kg, sc administered every 2 days for 6 days measured 24 hrs post last dose during conditioning training; assay type: organism-based; parameters: dose 10 mg/kg, route subcutaneous; conditions: in vivo
# Mus musculus [4] = experiment: Toxicity in ICR mouse assessed as rewarding effect by measuring increase in time spent in drug-paired compartment at 1 to 10 mg/kg, sc administered every 2 days for 6 days measured 24 hrs post last dose by conditioned place preference assay; assay type: organism-based; parameters: dose 1-10 mg/kg, route subcutaneous; conditions: in vivo
# Mus musculus [5] = experiment: Toxicity in ICR mouse assessed as effect on global effect at 1 to 10 mg/kg, sc administered every 2 days for 6 days measured 24 hrs post last dose during conditioning training; assay type: organism-based; parameters: dose 1-10 mg/kg, route subcutaneous; conditions: in vivo
Compound,Activity (Mus musculus [1]),Activity (Mus musculus [2]),Activity (Mus musculus [3]),Activity (Mus musculus [4]),Activity (Mus musculus [5])
CN1CC[C@]23c4c5ccc(O)c4O[C@H]2[C@@H](O)C=C[C@H]3[C@H]1C5 [MORPHINE],Active,Toxic,Toxic,,
CCC1C(=O)N(C2CCN([C@H]3CC[C@@H]4CCCc5cccc3c54)CC2)c2ccccc21 (mixture of isomers),,,,Non-toxic,Non-toxic
